“And” between values parts separate entries of the source, which are not always exact repeats. Equal entries are not always repeated.
Tests used:
[1] = tested on: Candida species; test: MIC on clinical isolates of Candida species, broth microdilution NCCLS M27-A (Table 3); type: cell-based; conditions: Candida species incl. fluconazole resistant; MIC = 90% growth inhibition
Procedure: The antibacterial effect of demethylated/dealkylated phenothiazine or thioxanthene compounds were studied by growth inhibition studies exposing cells to 0-32 μg/ml of drug. Each experiment was repeated in triplicate. MIC values represent the mean values of two separate triplicate experiments.
4 clinical isolates of Candida species (including 3 fluconazole resistant isolates) were subcultured for 24 h on Sabouraud glucose agar before susceptibility testing. Broth microdilution tests were performed according to NCCLS document M27-A (Ref: National Commitee for Clinical Laboratory Standards. (1997). Reference Method for Broth Dilution Antifungal Susceptibility Testing of Yeasts: Approved Standard M27-A. NCCLS, Wayne, Pa.). Microtitre plates were read spectrophotometrically at 530 nm, after mixing the wells by pipetting to resuspend yeast sediments. In this experiment, the MIC was defined as the lowest drug dilution resulting in 90% growth inhibition.

[2] = tested on: E. coli MDR clinical isolates; test: FIC index, synergy with antibiotics (Table 4a); type: cell-based; conditions: 8 MDR E. coli, mean, compound at ¼ of MIC
Procedure: The effect of the compounds was tested according to the methods described in WO2005/105145. In brief, cell growth was tested using the MIC susceptibility tests by use of the microdilution broth method in accordance to the NCCLS Guidelines (NCCLS Guidelines, Methods for Dilution Antimicrobial Susceptibility Tests for Bacteria That Grow Aerobically; Approved Standard, Sixth Edition, Volume 23; Number 2).
The Fractional Inhibitory Concentration (FIC) index were calculated for each compound as described in WO2005/105145. Synergy was defined for Fractional Inhibitory Concentration (FIC) indices less than 0.5
E. coli: 8 in vivo-selected multidrug resistant clinical isolates of E. coli. Resistant to tetracycline, beta-lactams, fluoroquinolones, chloramphenicol and aminoglycoside

[3] = tested on: Multiresistant clinical isolates E. coli; test: Maximal reversal of resistance and synergistic effect (Table 4c); type: cell-based; conditions: E. coli multiresistant isolates
Procedure: The maximal obtained reversal of resistance and synergistic effect was tested as previously described.
Strains: Multiresistant clinical isolates E. coli, Ten strains in each group.

[4] = tested on: S. aureus O11; test: Emergence of in vitro-selected single-step ciprofloxacin resistance; type: cell-based; conditions: ciprofloxacin 1 μg per ml (two times the MIC); inhibitor 1 μg/ml; 24 h
Procedure: The frequency of mutant selection was determined to be 3×10−8 by comparing the number of colonies that grew on plates containing the anti-infective agent with the number of colonies obtained upon plating appropriate dilutions in the absence of anti-infective agents.

[5] = tested on: Enterococcus faecalis ENT 28 (VRE); test: Mouse peritonitis model, neutropenic NMRI mice, enhancing effect with linezolid; type: in vivo
Procedure: A multiresistant clinical isolate of Enterococcus faecalis ENT 28 (VRE) from human urine was used.
Female NMRI mice (age, approximately 6 to 8 weeks; weight, 30±2 g) were used for the mouse […] peritonitis model (as described below).
In order to detect any synergistic effect, infected mice were treated with sub-therapeutic doses of each test compound alone or a mixture of the two compounds.
Bacterial suspensions were prepared from fresh overnight cultures (made from frozen stock cultures) on 5% blood agar plates as described above. The inoculum for the mouse peritonitis model was prepared immediately before use and was adjusted at 540 nm of giving a density of approximately 10^7 CFU/ml. The size of the inoculum was determined by viability counting on 5% blood agar.
Neutropenia was introduced by pretreating the mice with cyclophosphamide (6 mg daily for three days). […] Antibiotic therapy was initiated just after inoculation. Linezolid and compound 3 was administered subcutaneously in the neck region in a volume of 0.5 ml per dose. 3 mice were in each treatment group. Inoculated untreated control mice were included in all trials. (Method reference: Erlandsdottir et al; Antimicrob Agents Chemother. 2001 April; 45(4):1078-85)
The effects of the various treatment regimens were determined during 5 h of treatment by evaluation of bacterial counts in the peritoneal fluid. After the mice were killed, peritoneal washes were performed by injecting 2 ml of sterile saline intraperitoneally, followed by massage of the abdomen and then opening of the peritoneum to collect the fluid. Peritoneal fluids were immediately diluted 10-fold in saline, from which 20 μl was plated onto 5% blood agar plates in spots, with subsequent counting of colonies after incubation overnight at 35° C. The lowest detection levels for bacterial counts in blood and peritoneal fluid were 50 and 250 CFU/ml, respectively.

[6] = tested on: Candida albicans; test: Synergy with fluconazole, broth microdilution NCCLS M27-A (Table 10); type: cell-based
Procedure: The isolates were subcultured for 24 h on Sabouraud glucose agar before susceptibility testing. Broth microdilution tests were performed according to NCCLS document M27-A (Ref: National Commitee for Clinical Laboratory Standards. (1997). Reference Method for Broth Dilution Antifungal Susceptibility Testing of Yeasts: Approved Standard M27-A. NCCLS, Wayne, Pa.) Microtitre plates were read spectrophotometrically at 530 nm, after mixing the wells by pipetting to resuspend yeast sediments. […] The Fractional Inhibitory Concentration (FIC) was calculated for the anti-infective agent alone and in combination with compound 3 and 4 (see table 4) as described above. Synergy was defined as a FIC index of <0.5.

[7] = Cytotoxic effect in uninfected MT4 cultures; type: cell-based; conditions: human, uninfected MT4 cells; single agent; uninfected MT4
Procedure: (§1) Compounds were examined for possible antiviral activity against strain IIIB of HIV-1 using MT4 cells as target cells. MT4 cells were incubated with virus (0.005 MOI) and growth medium containing the test dilutions of compound(s) for six days in parallel with virus-infected and uninfected control cultures without compound added. Expression of HIV in the cultures was indirectly quantified using the MTT assay as previously described. Compounds mediating less than 30% reduction of HIV expression were considered without biological activity. Compounds were tested in parallel for cytotoxic effect in uninfected MT4 cultures containing the test dilutions of compound as described above. Cultures for test of both antiviral activity and cytotoxic effect were set up in tripleduplicates, […] per culture in micro titre plates. A 30% inhibition of cell growth relative to control cultures was considered significant. The 50% inhibitory concentration was determined by interpolation from the plots of percent inhibition versus concentration of compound.
(§2) CC50 is defined as the inhibitory concentration that reduces cellular growth or viability of uninfected cells by 50%.

[8] = tested on: MT4 cells; test: Cytotoxic effect in uninfected MT4 cultures; type: cell-based; conditions: at the concentrations used
Procedure: as §1, §2

[9] = treatment 0 and 2 hours, sampling 5 hours, sub-therapeutic doses as in Table 9, individual mice

Clc1ccc2c(c1)/C(=C/CCC1CCNCC1)c1ccccc1S2 [Compound 3]
MIC Mean (range) [1]: 1.0 (0.25-2.0) μ/ml | FIC index ([2]; with Ampicillin): 0.44 | FIC index ([2]; with Ciprofloxacin): 0.44 | FIC index ([2]; with Gentamycin): 0.44 | FIC index ([2]; with Tetracycline): 0.44 | Maximal reversal of resistance: concentration of compound [3]: 0.6 µg/mL | Frequency of emergence of resistance [4]: <1 × 10^−10 | Effect on the infection / bacteria in mouse peritoneum ([5]; sub-therapeutic dose alone): did not affect the bacteria | score at sampling ([5]; treatment 0 and 2 hours, sampling 5 hours, Linezolid 1 mg/ml 0.5 ml, Compound 3 0.1 mg/ml 0.5, combination Linezolid 2 mg/ml (0.25 ml) and compound 3 0.2 mg/ml (0.25 ml), individual mice): 1 and 2 (2×) | Cfu/ml peritoneum [5, 9]: 2.35E+09 Cfu/ml and 2.63E+09 Cfu/ml and 3.15E+09 Cfu/ml | log (cfu/ml) peritoneum [5, 9]: 9.37 log (cfu/ml) and 9.42 log (cfu/ml) and 9.50 log (cfu/ml) | MIC ([6]; Candida albicans, compound alone, read-out: MIC Compound): 1 µg/mL | FIC index ([6]; in combination with fluconazole): 0.28 | CC50 at 6 days [7]: > 4 µM | Cytotoxic effect alone [8]: no antiviral or cytotoxic effect
